Data on three substances can be found in US5656722A, “A^21 -, B^30 - modified insulin derivatives having an altered action profile” (Hoechst Aktiengesellschaft, priority 1988, dated 1997).

One data set deals with dogs. Briefly: Action profile (blood glucose) of insulin compositions in dogs. In kind it is in vivo. The procedure: D) Action Profile of an Asp^A21 -Human Insulin-Arg^B31 -Arg^B32-OH Composition in dogs by comparison with human insulin-Arg^B31 -Arg^B32 -OH and basal H insulin Hoechst^(R) =an NPH (neutral protamine Hagedorn) composition containing about 10 μg of Zn^2+.
For data set [1] the following is noted: pH 4.
Procedure: 18 mg of glycerol, 10 mg of benzyl alcohol, 80 μg of Zn^2+, pH 4.0.
The conditions of data set [2]: measured by isoelectric focusing; cited from earlier work.

Take “Asp^A21 -Human Insulin-Arg^B31 -Arg^B32 -OH”: the “Blood glucose as a % of the initial level” value stood at 99% in the data set on dogs (1 h); 62% in the data set on dogs (2 h); 51% with dogs (3 h); 75% in the data set on dogs (5 h); 98% in the data set with dogs (7 h). Moreover, the “Action profile (basal profile)” value in the data set on dogs (compared with human insulin-Arg^B31 -Arg^B32 -OH) was “same advantageous basal profile as human insulin-Arg^B31 -Arg^B32 -OH”. In data set [1], the Stability result is reported as “stable for a long time under the chosen conditions”.
As to “human insulin-Arg^B31 -Arg^B32 -OH [Human insulin Arg^B31 --Arg^B32 --OH, reference compound]”, the “Blood glucose as a % of the initial level” value is 77% in the data set with dogs (1 h); 52% with dogs (2 h); 64% in the data set on dogs (3 h); 85% with dogs (5 h); 98% in the data set on dogs (7 h).
For proinsulin: proinsulin, the Isoelectric point in data set [2] is 5.4 pH.
